Results: PubChem BioAssay (NCI)
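Values below derive from 48-hour exposures of cells grown in 96-well plates, with endpoints linearly interpolated between the two concentrations bracketing the appropriate inhibition level. Here, GI50 denotes the concentration required for 50% inhibition of growth. The concentration for full growth arrest is given as TGI.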

Tests used:
Experiment in all cases: NCI tumour cell line growth inhibition, 48 h; in the data active means GI50 below about 0.43 µM; inactive means the rest
786-0 renal = system: 786-0 renal
OVCAR-3 ovarian = system: OVCAR-3 ovarian
NCI-H226 lung = system: NCI-H226 lung
U251 CNS = system: U251 CNS
A549 NSCLC = system: A549 NSCLC
SN12C renal = system: SN12C renal
MDA-N = system: MDA-N
HL-60(TB) leukemia = system: HL-60(TB) leukemia
K-562 leukemia = system: K-562 leukemia
NCI-H23 lung = system: NCI-H23 lung
HCT-15 colon = system: HCT-15 colon
CCRF-CEM leukemia = system: CCRF-CEM leukemia
SF-268 CNS = system: SF-268 CNS
MALME-3M melanoma = system: MALME-3M melanoma
SNB-19 CNS = system: SNB-19 CNS
UACC-257 melanoma = system: UACC-257 melanoma
IGROV1 ovarian = system: IGROV1 ovarian
UO-31 renal = system: UO-31 renal
DU-145 prostate = system: DU-145 prostate
SK-OV-3 ovarian = system: SK-OV-3 ovarian
MCF7 breast = system: MCF7 breast
NCI-H522 lung = system: NCI-H522 lung
BT-549 breast = system: BT-549 breast
T-47D breast = system: T-47D breast
EKVX NSCLC = system: EKVX NSCLC
MDA-MB-231 breast = system: MDA-MB-231 breast
SK-MEL-5 melanoma = system: SK-MEL-5 melanoma
SK-MEL-28 melanoma = system: SK-MEL-28 melanoma
A498 renal = system: A498 renal
HT29 colon = system: HT29 colon
HS 578T breast = system: HS 578T breast
ACHN renal = system: ACHN renal
RXF 393 renal = system: RXF 393 renal
LOX IMVI melanoma = system: LOX IMVI melanoma
NCI-H460 lung = system: NCI-H460 lung
KM12 colon = system: KM12 colon
M14 melanoma = system: M14 melanoma
MDA-MB-435 = system: MDA-MB-435
OVCAR-5 ovarian = system: OVCAR-5 ovarian
HCT-116 colon = system: HCT-116 colon
TK-10 renal = system: TK-10 renal
OVCAR-4 ovarian = system: OVCAR-4 ovarian
HOP-62 NSCLC = system: HOP-62 NSCLC
OVCAR-8 ovarian = system: OVCAR-8 ovarian
MOLT-4 leukemia = system: MOLT-4 leukemia
SF-295 CNS = system: SF-295 CNS
NCI/ADR-RES ovarian = system: NCI/ADR-RES ovarian
PC-3 prostate = system: PC-3 prostate
SK-MEL-2 melanoma = system: SK-MEL-2 melanoma
SW-620 colon = system: SW-620 colon
CAKI-1 renal = system: CAKI-1 renal
COLO 205 colon = system: COLO 205 colon
UACC-62 melanoma = system: UACC-62 melanoma

COC(=O)c1cc2c(s1)-c1nccc3c1c(nc1ccccc13)C2=O
59.5 µM: TGI (MALME-3M melanoma)
inactive: GI50 (786-0 renal) > 100 µM | GI50 (OVCAR-3 ovarian) 16.5 µM | GI50 (NCI-H226 lung) > 100 µM | GI50 (U251 CNS) 50.6 µM | GI50 (A549 NSCLC) > 100 µM | GI50 (SN12C renal) > 100 µM | GI50 (MDA-N) 32.9 µM | GI50 (HL-60(TB) leukemia) 12.3 µM | GI50 (K-562 leukemia) > 100 µM | GI50 (NCI-H23 lung) > 100 µM | GI50 (HCT-15 colon) > 100 µM | GI50 (CCRF-CEM leukemia) > 100 µM | GI50 (SF-268 CNS) 29.1 µM | GI50 (MALME-3M melanoma) 16.4 µM | GI50 (SNB-19 CNS) > 100 µM | GI50 (UACC-257 melanoma) 32 µM | GI50 (IGROV1 ovarian) 28.8 µM | GI50 (UO-31 renal) > 100 µM | GI50 (DU-145 prostate) > 100 µM | GI50 (SK-OV-3 ovarian) > 100 µM | GI50 (MCF7 breast) 26.1 µM | GI50 (NCI-H522 lung) 35 µM | GI50 (BT-549 breast) > 100 µM | GI50 (T-47D breast) 62.8 µM | GI50 (EKVX NSCLC) > 100 µM | GI50 (MDA-MB-231 breast) 28.6 µM | GI50 (SK-MEL-5 melanoma) 33.8 µM | GI50 (SK-MEL-28 melanoma) > 100 µM | GI50 (A498 renal) > 100 µM | GI50 (HT29 colon) > 100 µM | GI50 (HS 578T breast) 28.2 µM | GI50 (ACHN renal) > 100 µM | GI50 (RXF 393 renal) 29.8 µM | GI50 (LOX IMVI melanoma) 29 µM | GI50 (NCI-H460 lung) > 100 µM | GI50 (KM12 colon) 69.4 µM | GI50 (M14 melanoma) 97.7 µM | GI50 (MDA-MB-435) 17.7 µM | GI50 (OVCAR-5 ovarian) > 100 µM | GI50 (HCT-116 colon) > 100 µM | GI50 (TK-10 renal) > 100 µM | GI50 (OVCAR-4 ovarian) > 100 µM | GI50 (HOP-62 NSCLC) 65.4 µM | GI50 (OVCAR-8 ovarian) 19.1 µM | GI50 (MOLT-4 leukemia) > 100 µM | GI50 (SF-295 CNS) > 100 µM | GI50 (NCI/ADR-RES ovarian) > 100 µM | GI50 (PC-3 prostate) > 100 µM | GI50 (SK-MEL-2 melanoma) > 100 µM | GI50 (SW-620 colon) 61.7 µM | GI50 (CAKI-1 renal) > 100 µM | GI50 (COLO 205 colon) 50.2 µM | GI50 (UACC-62 melanoma) > 100 µM
48.4 µM: TGI (OVCAR-8 ovarian)
> 100 µM: TGI (786-0 renal) | TGI (NCI-H226 lung) | TGI (U251 CNS) | TGI (A549 NSCLC) | TGI (SN12C renal) | TGI (MDA-N) | TGI (HL-60(TB) leukemia) | TGI (K-562 leukemia) | TGI (NCI-H23 lung) | TGI (HCT-15 colon) | TGI (CCRF-CEM leukemia) | TGI (SF-268 CNS) | TGI (SNB-19 CNS) | TGI (UACC-257 melanoma) | TGI (IGROV1 ovarian) | TGI (UO-31 renal) | TGI (DU-145 prostate) | TGI (SK-OV-3 ovarian) | TGI (MCF7 breast) | TGI (NCI-H522 lung) | TGI (BT-549 breast) | TGI (T-47D breast) | TGI (EKVX NSCLC) | TGI (MDA-MB-231 breast) | TGI (SK-MEL-5 melanoma) | TGI (SK-MEL-28 melanoma) | TGI (A498 renal) | TGI (HT29 colon) | TGI (HS 578T breast) | TGI (ACHN renal) | TGI (RXF 393 renal) | TGI (LOX IMVI melanoma) | TGI (NCI-H460 lung) | TGI (KM12 colon) | TGI (M14 melanoma) | TGI (OVCAR-5 ovarian) | TGI (HCT-116 colon) | TGI (TK-10 renal) | TGI (OVCAR-4 ovarian) | TGI (HOP-62 NSCLC) | TGI (MOLT-4 leukemia) | TGI (SF-295 CNS) | TGI (NCI/ADR-RES ovarian) | TGI (PC-3 prostate) | TGI (SK-MEL-2 melanoma) | TGI (SW-620 colon) | TGI (CAKI-1 renal) | TGI (COLO 205 colon) | TGI (UACC-62 melanoma)
32 µM: TGI (MDA-MB-435)
56.2 µM: TGI (OVCAR-3 ovarian)
